Results as given in US10081609B2, “Compounds for inducing proliferation and differentiation of cells, and methods of use thereof” (The Broad Institute, Inc., priority 2013, dated 2018).

Tests used:
[1] = test system: human primary hepatocytes; experiment: Expansion of human primary hepatocytes on growth-arrested J2-3T3 feeder layer in 12-well plates (imaging, cell counting, FACS, biochemical assays); assay type: cell-based
Procedure: Culture media were collected and frozen at −20° C. until analysis. Albumin content was measured through sandwich ELISA assays (MP Biomedicals, Fitzgerald, Bethyl Laboratories) using horseradish peroxidase detection and 3,3′,5,5′-tetramethylbenzidine (TMB, Fitzgerald Industries) as a substrate. Urea concentration was determined colorimetrically using diacetylmonoxime with acid and heat (Stanbio Labs). To quantify CYP450 activity, at 48 hours after small molecule exposure, cultures were incubated with substrates (coumarin from Sigma for CYP2A6, luciferin-IPA from Promega for CYP3A4) for 4 hours at 37° C. Incubation medium was collected and metabolite concentration quantified via luminescence, or fluorescence after hydrolization of potential metabolite conjugates by β-glucuronidase/arylsulfatase (Roche, Ind.).
To characterize the effects of FPH1 and FPH2 outside of the screening platform, human primary hepatocytes were seeded at a density of ˜20,000 cells/cm^2, into standard 12-well tissue culture plates on top of a feeder layer of growth-arrested J2-3T3s. These cells were cultured for 7 days, during which time a single compound/FPH was supplemented into the media on days 1 and 5 at a concentration of 20 μM. Treated hepatocyte colonies increased in size over time, with more hepatocytes populating each colony (FIG. 2D, 2E).
To characterize the degree of proliferation and to obtain a doubling time, cells were counted and fluorescence-activated cell sorting (FACS) was performed (FIG. 2H). For cell counting, FPH-treated cells were trypsinized after seven days in culture. The number of cells was quantified using an automated cell counter. The number of hepatocytes was obtained by subtracting the number of fibroblasts from the total number of cells found in the corresponding co-culture. For FACS analysis, growth arrested J2-3T3s were labeled with CM-DiI prior to initiation of co-culture so that hepatocytes can be identified via negative selection. To enable cell counting during FACS, each sample was supplemented with fluorescent counting beads. […] Over 7 days, FPH1 induced hepatocyte doublings at a rate that is consistent with reported liver regeneration kinetics in vivo.
To assess the phenotype of the treated hepatocytes, imaging, biochemical analyses and gene expression profiling were performed. […] Albumin secretion and urea synthesis, a surrogate marker of nitrogen metabolism, were both stable throughout FPH treatment (FIG. 3A top and middle). Metabolic functions were assessed via examinations of cytochrome P450 (CYP450) activity and canalicular transport. […] Gene expression profiling confirmed that there are no significant differences between FPH-treated and untreated hepatocytes (FIG. 3C).

[2] = test system: human primary hepatocytes; experiment: High-throughput liver platform, primary screening: hepatocyte proliferation by automated high-content imaging (hepatocyte nuclei numbers); assay type: cell-based; conditions: primary screening
Procedure: In order to avoid species-specific differences and cell line mutations, the screen was conducted with human primary hepatocytes. Traditionally, chemical screening on such cells has been hindered by their availability in large quantities as well as their rapid loss of viability and phenotype in vitro. Recent advances in cryopreservation technologies allowed enough primary human cells to be stored for screening; these cells are maintained through co-cultivation with non-parenchymal cells. Co-cultures of primary human hepatocytes with murine embryonic J2-3T3 fibroblasts were recently shown to maintain normal hepatocyte phenotype for weeks. These in vitro platforms consisted of hepatocytes surrounded by a co-planar population of fibroblasts. While sufficient for stabilizing hepatocyte functions in vitro, such platforms may limit normal hepatocyte expansion due to contact inhibition. Thus, for this screen, a sparse population of hepatocytes was co-cultivated on top of a confluent feeder layer of J2-3T3 fibroblasts within 384-well plates (FIG. 1A top). This screening platform stabilized hepatocyte phenotypic functions in vitro (FIG. 1A bottom) and was compatible with two separate high-throughput readouts developed for this screen.
The primary readout detected hepatocyte proliferation via automated high-content imaging. This assay quantified hepatocyte nuclei numbers, using nuclear morphologies to separate the hepatocyte and fibroblast subpopulations that co-exist within the screening platform. When visualized with Hoechst stain, hepatocyte nuclei were smaller and more uniform in texture while fibroblast nuclei were larger and punctated (FIG. 1A bottom). Leveraging this distinction, automated image analyses was developed that utilized machine learning algorithms to classify nuclei types and tabulate hepatocyte nuclei numbers. […] Besides quantifying hepatocyte nuclei that have completed mitosis, the number of nuclei in the process of mitosis were also quantified. Two additional analysis pipelines were built to detect nuclear morphologies consistent with cells undergoing metaphase and anaphase.
FIG. 1B top summarizes the workflow of the screen. Primary screening was done on human primary hepatocytes, preconditioned for seven days by non-parenchymal cells in the screening platform. Upon stabilization in vitro, cultures were treated with the chemical library for 48 hours. All compounds were tested in duplicates, at a single concentration of 15 μM. This single concentration was selected via a pilot screen of ˜2,000 small molecules. All 12,480 small molecules were initially tested on a single donor of cryopreserved hepatocytes (donor a) in order to eliminate noise from donor-to-donor variability. Following compound treatment, media supernatants were collected for functional analyses via ELISA and cultures were fixed in 4% paraformaldehyde for proliferation analyses via imaging.
To identify proliferation hits, three image-based readouts—one each to quantify the number of (1) hepatocyte nuclei in interphase, (2) nuclei in metaphase and (3) nuclei in anaphase—were integrated. z Scores were converted into p values, which were then used to generate ranked lists of compounds based on the efficacy and consistency of effects across the different proliferation readouts. Efficacy was assessed by the product of p values (pprod=pinter×pmeta×pana); consistency was evaluated by the maximum of p values (pmax=max(pinter, pmeta, pana). Compounds were considered proliferation hits if pprod<1×10^−6 and pmax<0.25. Functional hits were selected by an ELISA […]. Compounds with ELISA z>3.0 were eliminated as toxic. 93 compounds met all hit selection criteria, qualifying as Functional Proliferation Hits (FPH); FIG. 1B bottom illustrates the types of compounds that constituted this set of hits.

PAK5 = PAK5 (Homo sapiens, UniProt Q9P286); experiment: Kinome analysis (panel of kinases); assay type: biochemical
Procedure: (§1) Selected compounds of the invention (FPH1 and FPH2; both at 1 μM concentration) were screened against a panel of kinases (FIG. 17).

MAPKAPKV (PRAK) = MAPKAPKV (PRAK) (Homo sapiens, UniProt Q8IW41); experiment: Kinome analysis (panel of kinases); assay type: biochemical; conditions: read-out: MAPKAPKV (PRAK) inhibition
Procedure: as §1

PI3KCγ = experiment: Kinome analysis (panel of kinases); assay type: biochemical; conditions: 1 μM
Procedure: as §1

GRK1 = GRK1 (Homo sapiens, UniProt Q15835); experiment: Kinome analysis (panel of kinases); assay type: biochemical
Procedure: as §1

MSSK1 = MSSK1 (Homo sapiens, UniProt Q9UPE1); experiment: Kinome analysis (panel of kinases); assay type: biochemical
Procedure: as §1

FMS = FMS (Homo sapiens, UniProt P07333); experiment: Kinome analysis (panel of kinases); assay type: biochemical
Procedure: as §1

SAPK4 = SAPK4 (Homo sapiens, UniProt O15264); experiment: Kinome analysis (panel of kinases); assay type: biochemical
Procedure: as §1

EphB4 = EphB4 (Homo sapiens, UniProt P54760); experiment: Kinome analysis (panel of kinases); assay type: biochemical
Procedure: as §1

MAPKAP-KII = MAPKAP-KII (Homo sapiens, UniProt P49137); experiment: Kinome analysis (panel of kinases); assay type: biochemical
Procedure: as §1

eEF-2K = eEF-2K (Homo sapiens, UniProt O00418); experiment: Kinome analysis (panel of kinases); assay type: biochemical
Procedure: as §1

CK1 γ2 = CK1 γ2 (Homo sapiens, UniProt P78368); experiment: Kinome analysis (panel of kinases); assay type: biochemical
Procedure: as §1

Pim1 = Pim1 (Homo sapiens, UniProt P11309); experiment: Kinome analysis (panel of kinases); assay type: biochemical
Procedure: as §1

KDR = KDR (Homo sapiens, UniProt P35968); experiment: Kinome analysis (panel of kinases); assay type: biochemical
Procedure: as §1

IGF-1R = IGF-1R (Homo sapiens, UniProt P08069); experiment: Kinome analysis (panel of kinases); assay type: biochemical
Procedure: as §1

[3] = test system: primary human hepatocytes; experiment: Expansion of primary human hepatocytes from six additional cell sources (Ki67/albumin staining, FACS); assay type: cell-based
Procedure: On day seven, the number of hepatocytes was quantified by FACS analysis (FIG. 6B). Day one untreated controls was added to the bar graph for reference.

IGF-1R, sequence (P08069 31-1367, species assumed): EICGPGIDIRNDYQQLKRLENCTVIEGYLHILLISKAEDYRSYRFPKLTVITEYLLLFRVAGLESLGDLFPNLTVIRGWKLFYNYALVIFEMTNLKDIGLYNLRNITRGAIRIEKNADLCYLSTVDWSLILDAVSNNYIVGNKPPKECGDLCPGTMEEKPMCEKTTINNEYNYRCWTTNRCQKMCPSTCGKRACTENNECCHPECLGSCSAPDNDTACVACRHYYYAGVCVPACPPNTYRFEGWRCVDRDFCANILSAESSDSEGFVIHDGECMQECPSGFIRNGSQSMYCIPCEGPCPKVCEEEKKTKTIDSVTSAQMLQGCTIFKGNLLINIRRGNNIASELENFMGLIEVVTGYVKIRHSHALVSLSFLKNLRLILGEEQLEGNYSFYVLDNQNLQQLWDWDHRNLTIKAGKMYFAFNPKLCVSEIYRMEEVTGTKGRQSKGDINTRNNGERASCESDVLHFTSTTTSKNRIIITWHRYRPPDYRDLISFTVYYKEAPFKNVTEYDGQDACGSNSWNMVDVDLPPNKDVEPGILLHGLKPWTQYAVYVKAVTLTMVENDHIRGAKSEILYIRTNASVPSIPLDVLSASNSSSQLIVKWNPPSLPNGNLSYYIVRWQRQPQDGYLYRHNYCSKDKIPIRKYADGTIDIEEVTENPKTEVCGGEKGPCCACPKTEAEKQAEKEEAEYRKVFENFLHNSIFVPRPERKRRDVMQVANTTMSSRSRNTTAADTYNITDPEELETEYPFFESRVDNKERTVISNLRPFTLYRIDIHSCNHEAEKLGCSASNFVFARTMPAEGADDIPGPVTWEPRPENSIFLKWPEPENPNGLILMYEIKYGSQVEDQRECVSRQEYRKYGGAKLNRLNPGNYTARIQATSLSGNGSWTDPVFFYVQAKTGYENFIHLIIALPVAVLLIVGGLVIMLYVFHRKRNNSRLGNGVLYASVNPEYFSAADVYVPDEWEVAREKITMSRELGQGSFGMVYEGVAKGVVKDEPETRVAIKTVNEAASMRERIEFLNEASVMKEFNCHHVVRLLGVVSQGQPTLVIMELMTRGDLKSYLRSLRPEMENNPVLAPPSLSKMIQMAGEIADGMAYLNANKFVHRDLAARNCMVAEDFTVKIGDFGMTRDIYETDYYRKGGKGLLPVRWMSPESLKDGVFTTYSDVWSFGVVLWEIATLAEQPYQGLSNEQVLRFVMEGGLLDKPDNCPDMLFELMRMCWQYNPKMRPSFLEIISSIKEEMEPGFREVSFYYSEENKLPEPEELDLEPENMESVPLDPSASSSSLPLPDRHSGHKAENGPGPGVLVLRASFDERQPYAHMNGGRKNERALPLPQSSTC
FMS, sequence (P07333 20-972, species assumed): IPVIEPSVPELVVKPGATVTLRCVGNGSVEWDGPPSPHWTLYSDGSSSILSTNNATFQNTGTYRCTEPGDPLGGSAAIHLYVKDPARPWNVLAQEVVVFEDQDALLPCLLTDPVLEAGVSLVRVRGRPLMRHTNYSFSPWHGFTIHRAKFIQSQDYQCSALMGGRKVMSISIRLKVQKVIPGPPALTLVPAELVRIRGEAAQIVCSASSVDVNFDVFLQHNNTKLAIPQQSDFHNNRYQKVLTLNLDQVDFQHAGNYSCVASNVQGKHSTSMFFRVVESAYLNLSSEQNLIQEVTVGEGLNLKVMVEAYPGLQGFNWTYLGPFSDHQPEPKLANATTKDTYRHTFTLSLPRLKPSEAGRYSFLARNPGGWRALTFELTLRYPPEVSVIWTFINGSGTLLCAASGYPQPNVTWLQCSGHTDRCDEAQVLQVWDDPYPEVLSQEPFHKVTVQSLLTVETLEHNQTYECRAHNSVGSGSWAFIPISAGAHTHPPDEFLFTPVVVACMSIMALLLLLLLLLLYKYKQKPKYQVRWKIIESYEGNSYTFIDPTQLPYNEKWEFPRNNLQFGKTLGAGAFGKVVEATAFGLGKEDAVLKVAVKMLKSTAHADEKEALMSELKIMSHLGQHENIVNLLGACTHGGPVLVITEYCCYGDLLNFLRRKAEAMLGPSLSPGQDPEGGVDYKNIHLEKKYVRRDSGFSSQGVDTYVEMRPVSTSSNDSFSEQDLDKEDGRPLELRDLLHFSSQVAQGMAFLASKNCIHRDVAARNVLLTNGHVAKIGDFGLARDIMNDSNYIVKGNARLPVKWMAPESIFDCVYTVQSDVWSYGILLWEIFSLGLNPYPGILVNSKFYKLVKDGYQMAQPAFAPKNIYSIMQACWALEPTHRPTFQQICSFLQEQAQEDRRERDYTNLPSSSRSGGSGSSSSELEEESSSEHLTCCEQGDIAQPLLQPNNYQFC
KDR, sequence (P35968 20-1356, species assumed): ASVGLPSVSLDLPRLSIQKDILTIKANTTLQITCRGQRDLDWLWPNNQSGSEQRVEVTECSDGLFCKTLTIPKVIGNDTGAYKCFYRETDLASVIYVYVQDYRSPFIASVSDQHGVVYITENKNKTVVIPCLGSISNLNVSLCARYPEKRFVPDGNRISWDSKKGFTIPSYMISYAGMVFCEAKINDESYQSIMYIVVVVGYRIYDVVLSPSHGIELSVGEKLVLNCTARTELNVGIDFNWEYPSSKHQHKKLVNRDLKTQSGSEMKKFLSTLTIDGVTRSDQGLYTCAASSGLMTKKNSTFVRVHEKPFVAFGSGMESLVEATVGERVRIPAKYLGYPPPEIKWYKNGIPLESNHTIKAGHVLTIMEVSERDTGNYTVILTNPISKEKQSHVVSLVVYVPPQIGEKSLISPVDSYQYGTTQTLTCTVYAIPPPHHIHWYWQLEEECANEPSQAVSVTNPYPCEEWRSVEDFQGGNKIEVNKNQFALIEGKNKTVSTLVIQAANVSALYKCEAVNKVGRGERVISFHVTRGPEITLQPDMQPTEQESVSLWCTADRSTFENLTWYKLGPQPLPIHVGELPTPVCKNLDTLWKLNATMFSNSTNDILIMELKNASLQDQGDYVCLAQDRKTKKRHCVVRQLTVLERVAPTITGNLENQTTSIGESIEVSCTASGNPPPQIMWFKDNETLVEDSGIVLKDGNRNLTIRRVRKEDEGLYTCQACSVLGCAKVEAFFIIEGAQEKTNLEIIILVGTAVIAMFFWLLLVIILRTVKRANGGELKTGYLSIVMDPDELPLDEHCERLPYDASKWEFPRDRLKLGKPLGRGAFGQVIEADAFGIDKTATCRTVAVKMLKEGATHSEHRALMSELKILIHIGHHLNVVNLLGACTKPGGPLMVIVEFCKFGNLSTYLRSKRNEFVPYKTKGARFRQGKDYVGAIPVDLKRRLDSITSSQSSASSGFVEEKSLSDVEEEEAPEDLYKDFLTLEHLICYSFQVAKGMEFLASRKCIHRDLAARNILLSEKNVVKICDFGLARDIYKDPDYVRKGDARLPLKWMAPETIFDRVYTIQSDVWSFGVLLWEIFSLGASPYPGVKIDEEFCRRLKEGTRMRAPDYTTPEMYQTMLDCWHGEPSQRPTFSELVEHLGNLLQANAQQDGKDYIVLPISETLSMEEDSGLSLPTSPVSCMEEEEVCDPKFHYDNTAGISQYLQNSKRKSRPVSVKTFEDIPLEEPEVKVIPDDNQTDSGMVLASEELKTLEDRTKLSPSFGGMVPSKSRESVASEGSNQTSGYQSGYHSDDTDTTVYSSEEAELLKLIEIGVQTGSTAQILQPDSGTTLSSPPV
SAPK4, sequence (O15264 whole entry, species assumed): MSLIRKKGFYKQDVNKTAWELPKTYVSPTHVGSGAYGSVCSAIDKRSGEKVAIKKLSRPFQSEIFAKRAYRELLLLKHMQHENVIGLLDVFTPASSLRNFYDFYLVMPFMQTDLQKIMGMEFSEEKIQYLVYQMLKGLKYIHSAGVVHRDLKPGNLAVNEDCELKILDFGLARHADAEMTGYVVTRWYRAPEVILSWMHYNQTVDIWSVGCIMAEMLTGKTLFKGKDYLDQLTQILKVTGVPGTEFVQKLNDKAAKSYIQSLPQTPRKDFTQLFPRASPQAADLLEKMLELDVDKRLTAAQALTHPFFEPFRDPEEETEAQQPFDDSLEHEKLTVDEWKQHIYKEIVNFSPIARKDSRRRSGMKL
Pim1, sequence (P11309 whole entry, species assumed): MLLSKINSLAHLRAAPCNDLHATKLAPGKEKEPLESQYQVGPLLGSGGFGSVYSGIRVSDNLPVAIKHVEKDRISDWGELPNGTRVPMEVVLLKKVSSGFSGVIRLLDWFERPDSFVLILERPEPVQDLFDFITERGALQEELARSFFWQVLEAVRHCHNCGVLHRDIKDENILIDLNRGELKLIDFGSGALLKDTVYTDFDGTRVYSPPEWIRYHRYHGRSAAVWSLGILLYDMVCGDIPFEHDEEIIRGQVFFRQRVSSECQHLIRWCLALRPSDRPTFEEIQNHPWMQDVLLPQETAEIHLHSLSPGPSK
MAPKAPKV (PRAK), sequence (Q8IW41 whole entry, species assumed): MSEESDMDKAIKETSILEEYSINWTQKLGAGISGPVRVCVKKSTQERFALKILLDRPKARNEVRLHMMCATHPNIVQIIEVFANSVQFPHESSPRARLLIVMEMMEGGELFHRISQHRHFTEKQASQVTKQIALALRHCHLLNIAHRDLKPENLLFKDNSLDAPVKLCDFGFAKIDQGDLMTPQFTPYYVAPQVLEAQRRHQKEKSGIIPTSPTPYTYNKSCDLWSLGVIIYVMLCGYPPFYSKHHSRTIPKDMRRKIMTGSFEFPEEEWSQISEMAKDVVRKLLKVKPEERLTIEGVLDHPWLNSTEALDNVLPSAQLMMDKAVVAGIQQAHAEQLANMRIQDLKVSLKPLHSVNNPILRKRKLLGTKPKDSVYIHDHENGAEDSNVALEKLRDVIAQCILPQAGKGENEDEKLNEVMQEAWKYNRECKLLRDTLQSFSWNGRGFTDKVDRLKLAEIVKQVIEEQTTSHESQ

inhibition at 1 µM (PAK5): 6.7 to 18.4%
inhibition at 1 µM (MAPKAPKV (PRAK)): 6.7 to 18.4%
inhibition at 1 µM (GRK1): 6.7 to 18.4%
inhibition at 1 µM (MSSK1): 6.7 to 18.4%
inhibition at 1 µM (FMS): 23%
remaining activity at 1 µM (FMS): 77%
inhibition at 1 µM (SAPK4): 6.7 to 18.4%
inhibition at 1 µM (EphB4): 6.7 to 18.4%
inhibition at 1 µM (MAPKAP-KII): 6.7 to 18.4%
inhibition at 1 µM (eEF-2K): 6.7 to 18.4%
inhibition at 1 µM (CK1 γ2): 6.7 to 18.4%
inhibition at 1 µM (Pim1): 6.7 to 18.4%
inhibition at 1 µM (KDR): 6.7 to 18.4%
inhibition at 1 µM (IGF-1R): 21%
remaining activity at 1 µM (IGF-1R): 79%
number of hepatocytes by FACS ([3]; day seven, all donors): increase
Ki67 staining co-localized with albumin labeled hepatocytes ([3]; six additional cell sources, six days in culture): increased
SMILES: CCn1cc(NC(=S)Nc2cc(Cl)ccc2OC)c(C(N)=O)n1 [FPH1, 4-(3-(5-chloro-2-methoxyphenyl)thioureido)-1-ethyl-1H-pyrazole-3-carboxamide]
increase in the area of albumin-positive colonies ([1]; 20 μM on days 1 and 5, 7 days culture): up to 6.6 fold
degree of proliferation (cell counting, FACS) ([1]; 7 days): strongest proliferation inducer
number of nuclei undergoing mitosis [2]: elevated
increase in hepatocyte nuclei numbers during primary screening ([2]; 15 μM, 48 hours): 1.5 ×
PI3KCγ inhibition (PI3KCγ): 6.7-18.4%
